Measurements reported in ChEMBL document CHEMBL1130203, “Novel fluoroquinolone antibacterial agents containing oxime-substituted (aminomethyl)pyrrolidines: synthesis and antibacterial activity of 7-(4-(aminomethyl)-3-(methoxyimino)pyrrolidin-1-yl)-1-cyclopropyl-6- fluoro-4-oxo-1,4-dihydro[1,8]naphthyridine-3-carboxylic acid (LB20304)” (J Med Chem, 1997).
≈ marks a conversion by molar mass, not a printed value.

How the values were obtained:
Assay type in all cases: functional
[1] = tested on: Enterococcus faecalis; experiment: Minimum inhibitory concentration (MIC) against Streptococcus faecalis 29212; conditions: Enterococcus faecalis; read-out: MIC
[2] = tested on: Pseudomonas aeruginosa; experiment: Minimum inhibitory concentration (MIC) against Pseudomonas aeruginosa 1912E; conditions: Pseudomonas aeruginosa; read-out: MIC
[3] = tested on: Escherichia coli; experiment: Minimum inhibitory concentration (MIC) against Escherichia coli TEM9 2639E; conditions: Escherichia coli; read-out: MIC
[4] = tested on: Acinetobacter calcoaceticus; experiment: Minimum inhibitory concentration (MIC) against Acinetobacter calcoaceticus 15473; conditions: Acinetobacter calcoaceticus; read-out: MIC
[5] = tested on: Staphylococcus aureus; experiment: Minimum inhibitory concentration (MIC) against Staphylococcus aureus 6538p.
[6] = tested on: Enterobacter cloacae; experiment: Minimum inhibitory concentration (MIC) against Enterobacter cloacae P99
[7] = tested on: Klebsiella aerogenes; experiment: Minimum inhibitory concentration (MIC) against Klebsiella aerogenes 1082E; conditions: Klebsiella aerogenes; read-out: MIC
[8] = tested on: Staphylococcus aureus; experiment: Minimum inhibitory concentration (MIC) against Staphylococcus aureus giorgio
[9] = tested on: Bacillus subtilis; experiment: Minimum inhibitory concentration (MIC) against Bacillus subtilis ATCC 6633
[10] = tested on: Escherichia coli; experiment: Minimum inhibitory concentration (MIC) against Escherichia coli 3190Y
[11] = tested on: Escherichia coli; experiment: Minimum inhibitory concentration (MIC) against Escherichia coli 10536
[12] = tested on: Staphylococcus epidermidis; experiment: Minimum inhibitory concentration (MIC) against Staphylococcus epidermidis 887E
[13] = tested on: Staphylococcus epidermidis; experiment: Minimum inhibitory concentration (MIC) against Staphylococcus epidermidis 178; conditions: Staphylococcus epidermidis; read-out: MIC
[14] = tested on: Staphylococcus aureus; experiment: Minimum inhibitory concentration (MIC) against Staphylococcus aureus 241; conditions: Staphylococcus aureus; read-out: MIC
[15] = tested on: Acinetobacter calcoaceticus; experiment: Minimum inhibitory concentration (MIC) against Acinetobacter calcoaceticus 5473

| SMILES | MIC [1] | MIC [2] | MIC [3] | MIC [4] | MIC [5] | MIC [6] | MIC [7] | MIC [8] | MIC [9] | MIC [10] | MIC [11] | MIC [12] | MIC [13] | MIC [14] | MIC [15] |
| --- | --- | --- | --- | --- | --- | --- | --- | --- | --- | --- | --- | --- | --- | --- | --- |
| CO/N=C1\CN(c2c(F)cc3c(=O)c(C(=O)O)cn(C4CC4)c3c2OC)CC1CN (stereo unspecified) | 0.063 µg/mL (≈ 0.151 µM) | 2 µg/mL (≈ 4.78 µM) | 0.25 µg/mL (≈ 0.597 µM) | 0.25 µg/mL (≈ 0.597 µM) | 0.031 µg/mL (≈ 0.0741 µM) | 0.063 µg/mL (≈ 0.151 µM) | 0.25 µg/mL (≈ 0.597 µM) | 0.016 µg/mL (≈ 0.0382 µM) | 0.031 µg/mL (≈ 0.0741 µM) | 0.031 µg/mL (≈ 0.0741 µM) | 0.063 µg/mL (≈ 0.151 µM) | 0.031 µg/mL (≈ 0.0741 µM) | 1 µg/mL (≈ 2.39 µM) | 1 µg/mL (≈ 2.39 µM) | – |
| CO/N=C1\CN(c2c(F)cc3c(=O)c(C(=O)O)cn(C4CC4)c3c2Cl)CC1CN (stereo unspecified) | 0.13 µg/mL (≈ 0.307 µM) | 1 µg/mL (≈ 2.36 µM) | 0.25 µg/mL (≈ 0.591 µM) | – | 0.031 µg/mL (≈ 0.0733 µM) | 0.063 µg/mL (≈ 0.149 µM) | 0.25 µg/mL (≈ 0.591 µM) | 0.016 µg/mL (≈ 0.0378 µM) | 0.016 µg/mL (≈ 0.0378 µM) | 0.016 µg/mL (≈ 0.0378 µM) | 0.031 µg/mL (≈ 0.0733 µM) | 0.031 µg/mL (≈ 0.0733 µM) | 1 µg/mL (≈ 2.36 µM) | 1 µg/mL (≈ 2.36 µM) | 0.25 µg/mL (≈ 0.591 µM) |
| CO/N=C1\CN(c2nc3c(cc2F)c(=O)c(C(=O)O)cn3C2CC2)CC1CN (stereo in doubt) [GEMIFLOXACIN] | 0.063 µg/mL (≈ 0.162 µM) | 0.25 µg/mL (≈ 0.642 µM) | 0.031 µg/mL (≈ 0.0796 µM) | 0.063 µg/mL (≈ 0.162 µM) | < 0.008 µg/mL | < 0.008 µg/mL | 0.031 µg/mL (≈ 0.0796 µM) | < 0.008 µg/mL | < 0.008 µg/mL | < 0.008 µg/mL | < 0.008 µg/mL | < 0.008 µg/mL | 4 µg/mL (≈ 10.3 µM) | 4 µg/mL (≈ 10.3 µM) | – |
| NCC1CN(c2nc3c(cc2F)c(=O)c(C(=O)O)cn3C2CC2)C/C1=N\O (stereo unspecified) | 0.25 µg/mL (≈ 0.666 µM) | 2 µg/mL (≈ 5.33 µM) | 0.13 µg/mL (≈ 0.346 µM) | 0.13 µg/mL (≈ 0.346 µM) | 0.031 µg/mL (≈ 0.0826 µM) | 0.031 µg/mL (≈ 0.0826 µM) | 0.13 µg/mL (≈ 0.346 µM) | 0.031 µg/mL (≈ 0.0826 µM) | 0.016 µg/mL (≈ 0.0426 µM) | 0.016 µg/mL (≈ 0.0426 µM) | 0.031 µg/mL (≈ 0.0826 µM) | 0.031 µg/mL (≈ 0.0826 µM) | 8 µg/mL (≈ 21.3 µM) | 8 µg/mL (≈ 21.3 µM) | – |
| CCn1cc(C(=O)O)c(=O)c2cc(F)c(N3C/C(=N\OC)C(CN)C3)c(F)c21 (stereo unspecified) | 0.25 µg/mL (≈ 0.634 µM) | 2 µg/mL (≈ 5.07 µM) | 0.5 µg/mL (≈ 1.27 µM) | 1 µg/mL (≈ 2.54 µM) | 0.031 µg/mL (≈ 0.0786 µM) | 0.13 µg/mL (≈ 0.33 µM) | 0.5 µg/mL (≈ 1.27 µM) | 0.063 µg/mL (≈ 0.16 µM) | 0.031 µg/mL (≈ 0.0786 µM) | 0.063 µg/mL (≈ 0.16 µM) | 0.063 µg/mL (≈ 0.16 µM) | 0.063 µg/mL (≈ 0.16 µM) | 4 µg/mL (≈ 10.1 µM) | 4 µg/mL (≈ 10.1 µM) | – |
| NCC1CN(c2nc3c(cc2F)c(=O)c(C(=O)O)cn3C2CC2)C/C1=N\OCc1ccccc1 (stereo unspecified) | 0.031 µg/mL (≈ 0.0666 µM) | 1 µg/mL (≈ 2.15 µM) | 0.063 µg/mL (≈ 0.135 µM) | < 0.008 µg/mL | < 0.008 µg/mL | < 0.008 µg/mL | 0.063 µg/mL (≈ 0.135 µM) | < 0.008 µg/mL | < 0.008 µg/mL | < 0.008 µg/mL | < 0.008 µg/mL | < 0.008 µg/mL | 2 µg/mL (≈ 4.3 µM) | 2 µg/mL (≈ 4.3 µM) | – |
| NCC1CN(c2nc3c(cc2F)c(=O)c(C(=O)O)cn3C2CC2)C/C1=N\Oc1ccccc1 (stereo unspecified) | 0.13 µg/mL (≈ 0.288 µM) | 2 µg/mL (≈ 4.43 µM) | 0.13 µg/mL (≈ 0.288 µM) | 0.016 µg/mL (≈ 0.0354 µM) | 0.016 µg/mL (≈ 0.0354 µM) | 0.031 µg/mL (≈ 0.0687 µM) | 0.13 µg/mL (≈ 0.288 µM) | 0.016 µg/mL (≈ 0.0354 µM) | < 0.008 µg/mL | 0.016 µg/mL (≈ 0.0354 µM) | 0.031 µg/mL (≈ 0.0687 µM) | < 0.008 µg/mL | 16 µg/mL (≈ 35.4 µM) | < 0.008 µg/mL | – |
| CO/N=C1\CN(c2nc3c(cc2F)c(=O)c(C(=O)O)cn3C2CC2)CC1CN(C)C (stereo unspecified) | 1 µg/mL (≈ 2.4 µM) | 16 µg/mL (≈ 38.3 µM) | 1 µg/mL (≈ 2.4 µM) | 0.5 µg/mL (≈ 1.2 µM) | 0.13 µg/mL (≈ 0.311 µM) | 0.13 µg/mL (≈ 0.311 µM) | 0.016 µg/mL (≈ 0.0383 µM) | 0.13 µg/mL (≈ 0.311 µM) | 0.016 µg/mL (≈ 0.0383 µM) | 0.063 µg/mL (≈ 0.151 µM) | 0.13 µg/mL (≈ 0.311 µM) | 0.13 µg/mL (≈ 0.311 µM) | 16 µg/mL (≈ 38.3 µM) | 32 µg/mL (≈ 76.7 µM) | – |
| CO/N=C1\CN(c2c(F)c(N)c3c(=O)c(C(=O)O)cn(C4CC4)c3c2F)CC1CN (stereo unspecified) | 0.016 µg/mL (≈ 0.038 µM) | 0.25 µg/mL (≈ 0.593 µM) | 0.016 µg/mL (≈ 0.038 µM) | – | < 0.008 µg/mL | < 0.008 µg/mL | 0.016 µg/mL (≈ 0.038 µM) | < 0.008 µg/mL | < 0.008 µg/mL | 0.016 µg/mL (≈ 0.038 µM) | < 0.008 µg/mL | < 0.008 µg/mL | 0.25 µg/mL (≈ 0.593 µM) | 0.25 µg/mL (≈ 0.593 µM) | 0.031 µg/mL (≈ 0.0736 µM) |
